Results from patent publication US20230042936A1, “PYRIDO[2,3-d]PYRIMIDIN-7(8H)-ONES AS CDK INHIBITORS” (PROSENESTAR LLC, priority 2020, published 2023).
pIC50: −log10 of the molar value. “Also recorded” adds a separate entry of the source. Like-named read-outs stand apart in the source and are kept apart here.

Key:
CDC7/DBF4 = CDC7/DBF4 (Homo sapiens, UniProt O00311); assay: Kinase profiling; format: biochemical; conditions: 10 semi-logarithmic dilutions from 50 μM, singlicate; read-out: IC50 CDC7/DBF4
CDK1/CycB1 = CDK1/CycB1 (Homo sapiens, UniProt P06493); assay: Kinase profiling; format: biochemical
CDK1/CycE1 = CDK1/CycE1 (Homo sapiens, UniProt P06493); assay: Kinase profiling; format: biochemical
CDK6/CycD3 = CDK6/CycD3 (Homo sapiens, UniProt Q00534); assay: Kinase profiling; format: biochemical; conditions: 10 semi-logarithmic dilutions from 50 μM, singlicate
CDK9/CycK = CDK9/CycK (Homo sapiens, UniProt P50750); assay: Kinase profiling; format: biochemical; conditions: 10 semi-logarithmic dilutions from 50 μM, singlicate
CDK9/CycT1 = CDK9/CycT1 (Homo sapiens, UniProt P50750); assay: Kinase profiling; format: biochemical; conditions: 10 semi-logarithmic dilutions from 50 μM, singlicate
DYRK2 = target: T1, DYRK2 (Homo sapiens, UniProt Q92630); assay: Kinase profiling; format: biochemical; conditions: 10 semi-logarithmic dilutions from 50 μM, singlicate; read-out: IC50 DYRK2
T1 sequence (Q92630 1-601): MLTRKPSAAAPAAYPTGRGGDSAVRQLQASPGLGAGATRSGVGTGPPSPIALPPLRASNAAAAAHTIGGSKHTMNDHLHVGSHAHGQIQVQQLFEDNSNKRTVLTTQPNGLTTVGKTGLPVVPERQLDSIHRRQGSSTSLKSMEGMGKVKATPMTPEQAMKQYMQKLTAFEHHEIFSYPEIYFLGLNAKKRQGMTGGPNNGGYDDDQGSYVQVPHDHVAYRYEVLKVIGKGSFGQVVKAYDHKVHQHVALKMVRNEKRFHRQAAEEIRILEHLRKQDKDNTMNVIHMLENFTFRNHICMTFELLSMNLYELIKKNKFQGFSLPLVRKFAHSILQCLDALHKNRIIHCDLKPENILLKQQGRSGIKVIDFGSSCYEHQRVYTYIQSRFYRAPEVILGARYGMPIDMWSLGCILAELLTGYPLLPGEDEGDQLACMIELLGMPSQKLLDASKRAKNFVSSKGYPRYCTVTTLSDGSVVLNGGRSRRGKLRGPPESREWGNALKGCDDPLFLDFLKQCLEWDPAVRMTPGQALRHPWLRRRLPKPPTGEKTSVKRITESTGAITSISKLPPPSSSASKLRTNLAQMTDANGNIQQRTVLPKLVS

PIM1 = PIM1 (Homo sapiens, UniProt P11309); assay: Kinase profiling; format: biochemical; conditions: 10 semi-logarithmic dilutions from 50 μM, singlicate
[1] = tested on: panel of 27 kinases (CDK family members); assay: Kinase profiling, results in words; format: biochemical; conditions: from Table 1
MDA-MB-231 cells = assay: Senescence assay (β-Galactosidase staining); format: cell-based, human; conditions: at GI50; 3 days or 14 days exposure; FIGS. 2 and 3
Protocol: MDA-MB-231 cells were seeded in 6-well plates (65,000 cells/well) and treated with the selected compounds at their respective GI50. At 3, 7 and 14 days after treatment cells were stained with Senescence β-Galactosidase Staining Kit (Cell Signaling) at 37° C. overnight. Blue coloured senescent cells were counted with an optical microscope. Medium and compounds were refreshed every 3 days.
Cell cycle arrest can be irreversible in case of senescence induction.

[2] = Toxicologic evaluation in vivo; conditions: 50 or 100 mg/kg intraperitoneally twice a week for two weeks; for lung toxicity (hemorrhage in the lungs), mice affected: FIG. 11; for mouse weight: vs DMSO
[3] = Thermodynamic solubility (pH 7.4); format: physicochemical; conditions: pH 7.4, aqueous buffer, thermodynamic from solid
[4] = Metabolic stability in microsomes; format: in vitro ADME; conditions: mouse, 60-90 min test
[5] = Metabolic stability in hepatocytes; format: in vitro ADME; conditions: mouse, 60-90 min test
[6] = Permeability Caco-2 cells; format: in vitro ADME; conditions: human, Caco-2
Caco-2 cells = assay: Permeability Caco-2 cells; format: in vitro ADME
[7] = tested on: MDA-MB-231-derived xenografts; assay: Tumor xenografts; format: in vivo, Athymic nude mice; conditions: 100 mg/Kg intraperitoneally twice per week, two weeks
Protocol: For histological analysis, mice tissues and human xenografts were fixed in 10%-buffered formalin (Sigma) and embedded in paraffin wax. Sections of 3- or 5-μm thickness were stained with haematoxylin and eosin. Additional immunohistochemical examination was performed using a specific antibody against phospho-Rb (Ser807/811; Cell Signaling) or Ki67 (DAKO).
DMSO, PS004, PS006 and PS009 were diluted in sesame oil and administered intraperitoneally twice per week during two weeks at 100 mg/Kg. […] Tumor growth was monitored using caliper measurements and tumor size was estimated using the following formula: Tumor volume (mm^3)=d^2·D/2 where d and D, are the shortest and longest diameter in mm, respectively. After completing the treatment, mice were sacrificed and tumors were extracted, weighed, and fixed for histological analysis.
The therapeutic effect of the subject compounds was then tested by treating mice previously injected subcutaneously with MDA-MB-231 breast cancer cells. […] The dose amount of 100 mg/kg dosage in these cases was administered at a frequency of two injections per week for the total of two weeks of treatment.

[8] = 10 semi-logarithmic dilutions from 50 μM, singlicate

Sequence of CDK6/CycD3 (Q00534 whole entry): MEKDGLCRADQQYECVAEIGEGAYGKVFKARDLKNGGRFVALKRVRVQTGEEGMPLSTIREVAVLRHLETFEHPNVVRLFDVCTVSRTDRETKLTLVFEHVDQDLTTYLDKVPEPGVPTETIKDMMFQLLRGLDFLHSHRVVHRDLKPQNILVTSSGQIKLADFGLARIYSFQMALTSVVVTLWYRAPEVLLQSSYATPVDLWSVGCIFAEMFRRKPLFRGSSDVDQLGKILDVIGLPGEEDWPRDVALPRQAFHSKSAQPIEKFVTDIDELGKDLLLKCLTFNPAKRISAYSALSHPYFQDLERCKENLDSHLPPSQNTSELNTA
Sequence of CDK6/CycD3 (P30281 whole entry partner): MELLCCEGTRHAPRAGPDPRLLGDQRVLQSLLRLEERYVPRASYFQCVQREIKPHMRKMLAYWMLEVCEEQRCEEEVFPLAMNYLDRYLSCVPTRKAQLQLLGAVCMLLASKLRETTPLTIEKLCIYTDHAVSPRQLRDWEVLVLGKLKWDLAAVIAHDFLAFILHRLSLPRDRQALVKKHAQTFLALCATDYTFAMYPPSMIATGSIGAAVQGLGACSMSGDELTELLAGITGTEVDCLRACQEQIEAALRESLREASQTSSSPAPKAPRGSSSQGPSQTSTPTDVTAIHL
Sequence of CDK9/CycK (P50750 whole entry): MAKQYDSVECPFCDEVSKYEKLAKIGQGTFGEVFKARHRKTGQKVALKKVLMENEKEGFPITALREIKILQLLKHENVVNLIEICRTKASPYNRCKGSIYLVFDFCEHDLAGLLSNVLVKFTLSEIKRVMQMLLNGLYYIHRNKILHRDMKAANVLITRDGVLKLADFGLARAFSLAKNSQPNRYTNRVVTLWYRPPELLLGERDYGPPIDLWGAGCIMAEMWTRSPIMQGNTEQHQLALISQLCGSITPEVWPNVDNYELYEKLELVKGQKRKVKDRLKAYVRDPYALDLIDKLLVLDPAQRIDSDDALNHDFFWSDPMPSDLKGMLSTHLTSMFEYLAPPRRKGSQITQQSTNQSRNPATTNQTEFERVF
Sequence of CDK9/CycK (O75909 whole entry partner): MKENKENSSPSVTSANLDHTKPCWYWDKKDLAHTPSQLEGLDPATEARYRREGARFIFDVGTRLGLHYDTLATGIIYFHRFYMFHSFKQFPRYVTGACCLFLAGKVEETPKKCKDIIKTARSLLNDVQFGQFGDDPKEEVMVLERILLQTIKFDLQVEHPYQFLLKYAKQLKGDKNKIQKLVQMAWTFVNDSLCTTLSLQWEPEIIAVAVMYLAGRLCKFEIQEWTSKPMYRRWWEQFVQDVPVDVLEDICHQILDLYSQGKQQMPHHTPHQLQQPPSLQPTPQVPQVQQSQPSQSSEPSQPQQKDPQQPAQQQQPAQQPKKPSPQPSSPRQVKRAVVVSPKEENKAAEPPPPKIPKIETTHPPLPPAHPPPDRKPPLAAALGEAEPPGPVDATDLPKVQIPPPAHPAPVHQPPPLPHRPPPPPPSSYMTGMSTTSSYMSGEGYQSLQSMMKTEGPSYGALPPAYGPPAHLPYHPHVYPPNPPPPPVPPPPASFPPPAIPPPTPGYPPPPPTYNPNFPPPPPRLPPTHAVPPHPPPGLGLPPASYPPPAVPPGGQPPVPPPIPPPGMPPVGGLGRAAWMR
Sequence of CDK9/CycT1 (P50750 whole entry): as the sequence (P50750 whole entry) above
Sequence of CDK9/CycT1 (O60563 whole entry partner): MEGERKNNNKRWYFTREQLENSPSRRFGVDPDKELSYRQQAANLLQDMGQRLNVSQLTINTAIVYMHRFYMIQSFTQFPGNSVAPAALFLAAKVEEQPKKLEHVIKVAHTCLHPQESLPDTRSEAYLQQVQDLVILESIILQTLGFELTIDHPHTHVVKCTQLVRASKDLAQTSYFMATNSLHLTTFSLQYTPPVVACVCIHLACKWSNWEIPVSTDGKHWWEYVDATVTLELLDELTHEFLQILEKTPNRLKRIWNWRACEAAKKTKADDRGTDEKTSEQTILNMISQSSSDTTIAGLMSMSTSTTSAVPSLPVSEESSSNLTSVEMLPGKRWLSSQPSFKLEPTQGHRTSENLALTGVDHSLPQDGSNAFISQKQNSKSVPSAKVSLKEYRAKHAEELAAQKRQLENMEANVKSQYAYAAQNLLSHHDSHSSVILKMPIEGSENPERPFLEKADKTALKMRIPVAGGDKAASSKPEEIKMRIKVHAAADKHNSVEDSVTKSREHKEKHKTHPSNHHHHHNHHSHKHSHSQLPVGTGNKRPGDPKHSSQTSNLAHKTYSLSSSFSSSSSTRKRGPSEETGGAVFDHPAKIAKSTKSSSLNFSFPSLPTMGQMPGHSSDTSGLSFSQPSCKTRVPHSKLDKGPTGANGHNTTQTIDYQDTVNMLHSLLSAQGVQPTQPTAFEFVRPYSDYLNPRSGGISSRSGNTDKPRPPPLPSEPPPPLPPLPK
Sequence of CDC7/DBF4 (O00311 whole entry): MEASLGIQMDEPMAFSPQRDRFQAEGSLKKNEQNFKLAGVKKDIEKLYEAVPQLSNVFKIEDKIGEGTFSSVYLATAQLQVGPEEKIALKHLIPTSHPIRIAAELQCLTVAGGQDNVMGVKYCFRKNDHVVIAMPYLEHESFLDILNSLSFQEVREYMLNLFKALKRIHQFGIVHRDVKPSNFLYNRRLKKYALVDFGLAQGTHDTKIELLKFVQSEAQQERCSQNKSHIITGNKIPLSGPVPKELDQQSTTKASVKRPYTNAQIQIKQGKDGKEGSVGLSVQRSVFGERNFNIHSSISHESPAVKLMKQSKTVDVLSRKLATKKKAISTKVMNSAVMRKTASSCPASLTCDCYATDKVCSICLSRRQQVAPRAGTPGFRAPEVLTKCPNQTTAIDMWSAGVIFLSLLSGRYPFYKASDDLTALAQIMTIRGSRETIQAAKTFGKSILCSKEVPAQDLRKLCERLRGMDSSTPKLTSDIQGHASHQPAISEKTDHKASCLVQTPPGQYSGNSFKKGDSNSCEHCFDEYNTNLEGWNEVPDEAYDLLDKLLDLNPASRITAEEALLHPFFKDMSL
Sequence of CDC7/DBF4 (Q9UBU7 whole entry partner): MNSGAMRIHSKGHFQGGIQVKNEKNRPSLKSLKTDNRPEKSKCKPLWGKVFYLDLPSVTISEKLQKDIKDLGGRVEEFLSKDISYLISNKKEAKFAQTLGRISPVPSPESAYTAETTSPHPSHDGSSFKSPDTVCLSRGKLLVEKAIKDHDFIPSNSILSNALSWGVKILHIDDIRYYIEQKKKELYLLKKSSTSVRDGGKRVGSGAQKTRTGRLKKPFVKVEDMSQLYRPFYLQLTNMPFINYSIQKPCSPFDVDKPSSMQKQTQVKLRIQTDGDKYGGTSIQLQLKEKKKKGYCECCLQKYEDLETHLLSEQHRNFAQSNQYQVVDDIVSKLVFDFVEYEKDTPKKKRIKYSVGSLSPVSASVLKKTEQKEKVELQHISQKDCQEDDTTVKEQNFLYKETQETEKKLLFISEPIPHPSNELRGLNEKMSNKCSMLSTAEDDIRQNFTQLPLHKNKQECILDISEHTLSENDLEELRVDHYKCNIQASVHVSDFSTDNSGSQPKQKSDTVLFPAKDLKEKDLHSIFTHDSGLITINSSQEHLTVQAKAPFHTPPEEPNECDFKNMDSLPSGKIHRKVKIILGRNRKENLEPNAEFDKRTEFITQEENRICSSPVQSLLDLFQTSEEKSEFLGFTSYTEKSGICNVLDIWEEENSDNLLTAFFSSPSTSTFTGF
Sequence of PIM1 (P11309 whole entry, species assumed): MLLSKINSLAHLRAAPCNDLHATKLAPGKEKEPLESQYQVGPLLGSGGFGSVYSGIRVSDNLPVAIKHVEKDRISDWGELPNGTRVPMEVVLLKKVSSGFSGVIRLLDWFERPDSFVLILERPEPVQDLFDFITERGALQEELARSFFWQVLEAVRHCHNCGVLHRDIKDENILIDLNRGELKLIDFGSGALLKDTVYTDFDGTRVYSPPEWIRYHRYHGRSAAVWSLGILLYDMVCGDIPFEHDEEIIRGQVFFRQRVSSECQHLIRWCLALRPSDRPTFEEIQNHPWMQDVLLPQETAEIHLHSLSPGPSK
Sequence of CDK1/CycE1 (P06493 whole entry): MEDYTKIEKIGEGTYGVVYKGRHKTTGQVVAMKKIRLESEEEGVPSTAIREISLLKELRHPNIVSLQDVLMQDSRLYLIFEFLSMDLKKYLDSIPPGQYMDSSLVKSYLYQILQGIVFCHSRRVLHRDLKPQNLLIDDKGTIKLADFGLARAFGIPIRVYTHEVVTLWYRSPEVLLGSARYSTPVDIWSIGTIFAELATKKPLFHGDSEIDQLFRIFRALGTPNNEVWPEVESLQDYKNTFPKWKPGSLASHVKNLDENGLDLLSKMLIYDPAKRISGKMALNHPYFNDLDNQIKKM
Sequence of CDK1/CycE1 (P24864 whole entry partner): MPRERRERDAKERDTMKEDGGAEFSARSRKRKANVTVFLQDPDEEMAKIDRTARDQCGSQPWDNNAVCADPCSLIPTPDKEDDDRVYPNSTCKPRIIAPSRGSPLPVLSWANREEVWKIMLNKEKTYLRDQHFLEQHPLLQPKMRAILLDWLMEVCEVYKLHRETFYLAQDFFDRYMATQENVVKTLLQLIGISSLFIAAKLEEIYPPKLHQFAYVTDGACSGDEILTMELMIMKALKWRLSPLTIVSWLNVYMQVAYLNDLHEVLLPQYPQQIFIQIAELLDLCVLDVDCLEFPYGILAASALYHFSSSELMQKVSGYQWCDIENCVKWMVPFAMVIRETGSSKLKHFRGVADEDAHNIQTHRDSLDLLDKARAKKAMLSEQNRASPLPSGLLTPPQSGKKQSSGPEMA

SMILES | pIC50 (CDC7/DBF4) | pIC50 (CDK1/CycB1; [8]) | pIC50 (CDK1/CycE1; [8]) | pIC50 (CDK6/CycD3) | pIC50 (CDK9/CycK) | pIC50 (CDK9/CycT1) | pIC50 (DYRK2) | pIC50 (PIM1) | additional affinity for CDK1/2 [1] | SA-βGAL staining (senescence induction) (MDA-MB-231 cells) | kinase affinity profile [1] | further results
O=c1ccc2cnc(Nc3ccc(N4CCC(OCC5(CO)COC5)CC4)cc3)nc2n1[C@@H]1CC2CCC1C2 (stereo partly drawn) [PS016, 8-((2R)-bicyclo[2.2.1]heptan-2-yl)-2-((4-(4-((3-(hydroxymethyl)oxetan-3-yl)methoxy)piperidin-1-yl)phenyl)amino)pyrido[2,3-d]pyrimidin-7(8H)-one] | 5.70 | 6.21 | 6.28 | 7.48 | 7.33 | 7.03 | 4.71 | 4.40 | additional affinity | – | – | affinity for CDK5 [1]: presented affinity
O=c1ccc2cnc(Nc3ccc(N4CCC(CCCO)CC4)c(F)c3)nc2n1[C@@H]1CC2CCC1C2 (stereo partly drawn) [PS003, 8-((2R)-bicyclo[2.2.1]heptan-2-yl)-2-((3-fluoro-4-(4-(3-hydroxypropyl)piperidin-1-yl)phenyl)amino)pyrido[2,3-d]pyrimidin-7(8H)-one] | 5.12 | 5.33 | 5.53 | 6.21 | 6.34 | 6.04 | < 4.30 | < 4.30 | – | induced high levels of SA-βGAL staining | – | –
O=c1ccc2cnc(Nc3ccc(N4CCC(CCCO)CC4)cc3)nc2n1C1CC2CCC1C2 (stereo not shown) [PD-0183812, reference compound] | 4.73 | – | – | 6.52 | 6.76 | 6.31 | < 4.30 | 4.45 | – | induced high levels of SA-βGAL staining | – | pIC50 (CDK1/CycB1): 4.49; pIC50 (CDK1/CycE1): 5.09; histopathology of the bone marrow [2]: hypoplasia/reactive bone marrow; histopathology of the intestine [2]: aberrant mitotic figures; histopathology of the spleen [2]: active extramedullar hematopoiesis; lung toxicity (hemorrhage in the lungs), mice affected [2]: 6 out of 6; mouse weight ([2]; FIG. 10): induced significant weight loss
CC(=O)c1c(C)c2cnc(Nc3ccc(N4CCC(CCCO)CC4)cc3)nc2n([C@@H]2CC3CCC2C3)c1=O (stereo partly drawn) [PS008, 6-acetyl-8-((2R)-bicyclo[2.2.1]heptan-2-yl)-2-((4-(4-(3-hydroxypropyl)piperidin-1-yl)phenyl)amino)-5-methylpyrido[2,3-d]pyrimidin-7(8H)-one] | < 4.30 | 6.14 | 5.52 | 6.17 | 7.17 | 6.76 | 5.03 | < 4.30 | additional affinity | induced high levels of SA-βGAL staining | – | –
O=c1ccc2cnc(Nc3ccc(N4CCNCC4)cc3)nc2n1[C@@H]1CC2CCC1C2 (stereo partly drawn) [PS007, 8-((2R)-bicyclo[2.2.1]heptan-2-yl)-2-((4-(piperazin-1-yl)phenyl)amino)pyrido[2,3-d]pyrimidin-7(8H)-one] | 6.27 | 7.01 | 7.39 | 8.02 | 8.14 | 7.87 | 5.64 | 6.31 | – | – | bind many other CDK family members | –
CC(O)CCN1CCN(c2ccc(Nc3ncc4ccc(=O)n([C@@H]5CC6CCC5C6)c4n3)cc2)CC1 (stereo partly drawn) [PS005, 8-((2R)-bicyclo[2.2.1]heptan-2-yl)-2-((4-(4-(3-hydroxybutyl)piperazin-1-yl)phenyl)amino)pyrido[2,3-d]pyrimidin-7(8H)-one] | 5.81 | 7.39 | 6.76 | 7.77 | 7.99 | 7.67 | 5.33 | 5.14 | – | – | bind many other CDK family members | –
CC(=O)c1c(C)c2cnc(Nc3ccc(N4CCC(CCCO)CC4)cc3)nc2n(C2CCCC2)c1=O [PS009, 6-acetyl-8-cyclopentyl-2-((4-(4-(3-hydroxypropyl)piperidin-1-yl)phenyl)amino)-5-methylpyrido[2,3-d]pyrimidin-7(8H)-one] | < 4.30 | 4.49 | 4.70 | 6.90 | 7.25 | 6.71 | < 4.30 | < 4.30 | additional affinity | induced high levels of SA-βGAL staining; also recorded: very high SA-BGAL activity induction | mainly bound to CDK4/6/ with also an interesting preference for CDK2 and CDK9 | solubility thermodynamic [3]: < 2 µM; microsomal CLint ([4]; read-out: Metabolic stability, Mouse microsomes: Clearance): 46.9 µL/min/mg; half-life ([4]; read-out: Metabolic stability, Mouse microsomes: t1/2): 29.5 min; hepatocyte CLint ([5]; read-out: Metabolic stability, Mouse heptocytes: Clearance): 67.8 µL/min/1e6 cells; half-life ([5]; read-out: Metabolic stability, Mouse heptocytes: t1/2): 20.4 min; Papp [6]: < 0.43 ×10⁻⁶ cm/s; Permeability Caco-2 cells: Permeability, grade in words (Caco-2 cells): (low); phospho-RB levels in the xenografts ([7]; FIG. 9A): reduction of phospho-Rb phosphorylation which however did not reach statistical significance; tumor weight ([7]; vs DMSO, FIG. 8A): did not exert any antitumoral effect; tumor growth ([7]; vs DMSO, FIG. 8B): did not exert any antitumoral effect; blood counts (white blood cells, lymphocytes) ([2]; FIG. 10): no defects in blood counts; lung toxicity (hemorrhage in the lungs), mice affected [2]: 1 out of 6; mouse weight ([2]; FIG. 10): induced weight loss
CC(=O)c1c(C)c2cnc(Nc3ccc(N4CCNCC4)cc3)nc2n([C@@H]2CC3CCC2C3)c1=O (stereo partly drawn) [PS010, 6-acetyl-8-((2R)-bicyclo[2.2.1]heptan-2-yl)-5-methyl-2-((4-(piperazin-1-yl)phenyl)amino)pyrido[2,3-d]pyrimidin-7(8H)-one] | 4.87 | 5.69 | 5.84 | 7.67 | 7.92 | 7.44 | 5.90 | 5.09 | – | – | – | affinity for CDK5 [1]: presented affinity
